From patent US20150094354A1, “METHOD FOR TREATING CELL PROLIFERATIVE DISORDER BY INHIBITING C1GALT1 EXPRESSION” (National Taiwan University, priority 2013, published 2015)

Assays:
T47D cell lines = assay: MTT cell growth assay, breast cancer cells (itraconazole); type: cell-based, human; design: dose or concentration left out as unconfirmed; details: itraconazole for 5 days, compared with control (DMSO)
Procedure: (§1) FIG. 88B is a schematic diagram illustrating that itraconazole suppresses breast cancer cell growth in accordance with an embodiment of the present invention. To determine whether impairing C1GALT1 function affects breast cancer cell malignant phenotypes, the effects of itraconazole on breast cancer cell growth are analyzed by MTT cell growth assay in T47D cell lines. Cells (3×10^3) are seeded into 96-well microtitre plates and treated with DMSO (control) or itraconazole 10 µg/ml for 5 days at 37° C. under 5% CO2 atmosphere. Results from two independent experiments are presented as mean±SD and analyzed with student's t-test, *p<0.05 and **p<0.01.

HCC36 cell lines = assay: MTT cell growth assay, liver cancer cells; type: cell-based, human; design: dose or concentration left out as unconfirmed; details: HCC36, itraconazole for 5 days, compared with control (DMSO)
Procedure: as §1, with “88C” for “88B”, “liver” for “breast”, “HCC36” for “T47D”

C1GALT1 [1] = assay: FITC-VVA FACS analysis of Tn antigen accumulation in T47D breast cancer cells; type: cell-based, human; details: mock and C1GALT1 overexpressed T47D transfectants, itraconazole 10 ug/ml
Procedure: (§2) FIGS. 86A-86D are graphs illustrating that itraconazole impairs C1GALT1 function leading to the accumulation of Tn antigen expression in breast cancer cells in accordance with an embodiment of the present invention. […] After itraconazole treatment, cells are detached with 5 mM EDTA. Afterwards, FITC conjugated Vicia villosa agglutinin (VVA), lectin specifically recognizing Tn antigen, is applied for analysis with a fluoresencce-activated cell sorting (FACS) system. A right-shift of the VVA peak indicates the accumulation of Tn antigens. […] After itraconazole treatment, cells are detached with 5 mM EDTA and treated with or without 10 mU/ml neuraminidase to unmask the effects of sialylated O-glycans. After treatment with neuraminidase, FITC conjugated Vicia villosa agglutinin (VVA), lectin specifically recognizing Tn antigen, is applied for analysis with a fluoresencce-activated cell sorting (FACS) system. […] To confirm whether the peak shift is a result of impaired C1GALT1 function, mock and C1GALT1 overexpressed T47D cells are analyzed. […] Overexpression of C1GALT1 results in a left-shift of the VVA peak in itraconazole-untreated transfectants, indicating intact C1GALT1 function in depleting Tn antigens as substrates for T antigen synthesis.

C1GALT1 [2] = molecular target: T1, C1GALT1 (Homo sapiens, UniProt Q9NS00); assay: as above; type: cell-based; design: endogenous in cells; host or cells: T47D breast cancer cells
Procedure: as §2

CL1-5 cell lines = assay: MTT cell growth assay, lung cancer cells; type: cell-based, human; design: dose or concentration left out as unconfirmed; details: CL1-5, itraconazole for 5 days, compared with control (DMSO)
Procedure: as §1, with “88A” for “88B”, “lung” for “breast”, “CL1-5” for “T47D”

C1GALT1 [3] = molecular target: T1, C1GALT1; assay: FITC-VVA FACS analysis of Tn antigen accumulation in HCC36 liver cancer cells; type: cell-based; design: endogenous in cells; details: for VVA peak shift (accumulation of Tn antigens): itraconazole 10 ug/ml
From the text: According to another embodiment of the present invention, in the experiment in vitro, itraconazole, a small molecular drug, is used as the C1GALT1 inhibition substance. Itraconazole is an FDA approved drug that is clinically employed as an antimicrobial for the treatment of fungal, mycosis, and candida infections. The inventors of the present invention discovered that the structure of itraconazole is suitable for binding to the catalytic domain of C1GALT1 and inhibiting C1GALT1. Cells are cultured in DMEM with 10% FBS and treated with itraconazole 10 ug/ml for 3 days at 37° C. under 5% CO2.
as §2, with “FIGS. 87A-87D are graphs” for “FIGS. 86A-86D are graphs”, “leading to accumulation of” for “leading to the accumulation of”, “expression in […] cancer cells” for “expression in breast cancer cells”, “right-shift of VVA peak” for “right-shift of the VVA peak”, “C1GALT1 overexpressed HCC36 cells are” for “C1GALT1 overexpressed T47D cells are”, “results in left-shift of” for “results in a left-shift of”
Target sequence in this assay (Q9NS00 whole entry): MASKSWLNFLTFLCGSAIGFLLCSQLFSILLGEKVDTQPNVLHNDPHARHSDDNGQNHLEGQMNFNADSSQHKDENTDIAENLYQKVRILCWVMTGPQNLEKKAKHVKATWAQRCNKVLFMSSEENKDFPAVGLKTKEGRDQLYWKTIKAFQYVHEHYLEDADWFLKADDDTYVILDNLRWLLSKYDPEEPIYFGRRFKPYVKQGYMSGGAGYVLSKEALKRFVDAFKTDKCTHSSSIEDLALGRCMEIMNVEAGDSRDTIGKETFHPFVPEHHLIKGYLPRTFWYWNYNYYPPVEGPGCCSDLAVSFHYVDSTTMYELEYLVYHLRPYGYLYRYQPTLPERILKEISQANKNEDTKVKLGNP

C1GALT1 [4] = molecular target: T1, C1GALT1; assay: FITC-VVA FACS analysis of Tn antigen accumulation in CL1-5 lung cancer cells; type: cell-based; design: endogenous in cells; details: for VVA peak shift (accumulation of Tn antigens): itraconazole 10 ug/ml
Procedure: as §2, with “85A-85D” for “86A-86D”, “lung” for “breast”, “indicates” for “indicates the”, “CL1-5” for “T47D”, “itraconazole untreated” for “itraconazole-untreated”
Target sequence in this assay (Q9NS00 whole entry): as above

HCC36 cells = assay: Trypan blue exclusion assay of C1GALT1-enhanced cell viability with MET inhibitor; type: cell-based, human; details: HCC36, C1GALT1 overexpression, 72 hours
Procedure: (§3) Cells (4×10^4) are seeded in each well of 6-well plates with DMEM containing 10% FBS. Viable cells are analyzed by Trypan blue exclusion assay at 0, 24, 48, and 72 hours. Cell proliferation is evaluated by immunostaining with anti-Ki67 antibody (1:1000; Vector Laboratories). For cell-cycle analysis, 1×10^6 cells are stained with propidium iodide (Sigma) for 30 minutes. The percentages of cells in G1, S, and G2M phases are analyzed by flow cytometry (Becton Dickinson). […] Data are represented as means±SD from three independent experiments (** refers to P<0.01).

Sk-Hep1 cells = assay: as above; type: cell-based, human; details: Sk-Hep1, C1GALT1 overexpression, 72 hours
Procedure: as §3

VVA peak shift (accumulation of Tn antigen substrates) (C1GALT1 [2]; C1GALT1 overexpressed T47D cells, sialylated O-glycans unmasked by neuraminidase) | VVA peak shift (accumulation of Tn antigens) (C1GALT1 [2]; T47D parental cells, itraconazole 10 ug/ml, regardless of sialylated O-glycans) | VVA peak shift (accumulation of Tn antigen substrates) (C1GALT1 [3]; C1GALT1 overexpressed HCC36 cells, sialylated O-glycans unmasked by neuraminidase) | VVA peak shift (accumulation of Tn antigens) (C1GALT1 [3]; HCC36 parental cells, regardless of sialylated O-glycans) | VVA peak shift (accumulation of Tn antigens) (C1GALT1 [3]; mock and C1GALT1 overexpressed HCC36 transfectants) | VVA peak shift (accumulation of Tn antigen substrates) (C1GALT1 [4]; C1GALT1 overexpressed CL1-5 cells, sialylated O-glycans unmasked by neuraminidase) | VVA peak shift (accumulation of Tn antigens) (C1GALT1 [4]; CL1-5 parental cells, regardless of sialylated O-glycans) | VVA peak shift (accumulation of Tn antigens) (C1GALT1 [4]; mock and C1GALT1 overexpressed CL1-5 transfectants) | Compound | breast cancer cell growth (T47D cell lines) | liver cancer cell growth (HCC36 cell lines) | VVA peak shift (accumulation of Tn antigens) (C1GALT1 [1]) | lung cancer cell growth (CL1-5 cell lines) | C1GALT1-enhanced cell viability (HCC36 cells) | C1GALT1-enhanced cell viability (Sk-Hep1 cells)
major peak shifts to the right | right shift of the VVA peak | major peak shifts to the right | right shift of the VVA peak | major right-shift of the VVA peaks | major peak shifts to the right | right shift of the VVA peak | major right-shift of the VVA peaks | CCC(C)n1ncn(-c2ccc(N3CCN(c4ccc(OCC5COC(Cn6cncn6)(c6ccc(Cl)cc6Cl)O5)cc4)CC3)cc2)c1=O (centres unmarked) [itraconazole] | significantly suppressed | significantly suppressed | major right-shift of the VVA peaks | significantly suppressed | – | –
– | – | – | – | – | – | – | – | Cc1[nH]c(/C=C2\C(=O)Nc3ccc(S(=O)(=O)Cc4c(Cl)cccc4Cl)cc32)c(C)c1C(=O)N1CCC[C@@H]1CN1CCCC1 [PHA665752] | – | – | – | – | significantly inhibited | significantly inhibited
